Laboratory results as given in PubChem BioAssay (NCI).
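Step 1: Grow cells in 96-well plates. Step 2: Expose to compound for 48 hours at 5 concentrations. Step 3: Interpolate endpoints linearly; if unreached, use highest concentration. Here, GI50 denotes the concentration required for 50% inhibition of growth. The concentration for full growth arrest is given as TGI.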

Columns and labels:
Assay in all cases: NCI tumour cell line growth inhibition, 48 h
A549 NSCLC = system: A549 NSCLC
SF-268 CNS = system: SF-268 CNS
SF-295 CNS = system: SF-295 CNS
SNB-75 CNS = system: SNB-75 CNS
SR leukemia = system: SR leukemia
TK-10 renal = system: TK-10 renal
CCRF-CEM leukemia = system: CCRF-CEM leukemia
DU-145 prostate = system: DU-145 prostate
MDA-MB-435 = system: MDA-MB-435
NCI-H522 lung = system: NCI-H522 lung
HS 578T breast = system: HS 578T breast

O=C1/C(=C/c2ccccc2)CCCC/C1=C\c1ccccc1
TGI (A549 NSCLC): > 100 µM | TGI (SF-268 CNS): > 100 µM | TGI (SF-295 CNS): > 100 µM | TGI (SNB-75 CNS): > 100 µM | TGI (SR leukemia): > 100 µM | TGI (TK-10 renal): > 100 µM

O=C(O)CCSc1nnc(COc2ccc(Cl)cc2)n1-c1ccccc1
TGI (A549 NSCLC): > 100 µM | TGI (CCRF-CEM leukemia): > 100 µM | TGI (DU-145 prostate): > 100 µM | TGI (MDA-MB-435): > 100 µM | TGI (NCI-H522 lung): > 100 µM | TGI (SF-268 CNS): > 100 µM | TGI (SF-295 CNS): > 100 µM | TGI (SNB-75 CNS): > 100 µM | TGI (TK-10 renal): > 100 µM

O=C(/C=C/c1ccccc1)CCC1C(=O)NC(=O)NC1=O
TGI (A549 NSCLC): > 100 µM | TGI (DU-145 prostate): > 100 µM | TGI (HS 578T breast): > 100 µM | TGI (MDA-MB-435): > 100 µM | TGI (NCI-H522 lung): > 100 µM | TGI (SF-268 CNS): > 100 µM | TGI (SF-295 CNS): > 100 µM | TGI (SNB-75 CNS): > 100 µM | TGI (TK-10 renal): > 100 µM

COC(=O)c1cc(C#N)[nH]c1-c1cccs1
TGI (A549 NSCLC): > 100 µM | TGI (CCRF-CEM leukemia): > 100 µM | TGI (DU-145 prostate): > 100 µM | TGI (MDA-MB-435): > 100 µM | TGI (NCI-H522 lung): > 100 µM | TGI (SF-268 CNS): > 100 µM | TGI (SF-295 CNS): > 100 µM | TGI (SNB-75 CNS): > 100 µM | TGI (SR leukemia): > 100 µM

CN(C)CCN1C(=O)c2ccccc2C1(O)c1ccc(Cl)cc1 (configuration not stated)
TGI (A549 NSCLC): > 100 µM | TGI (CCRF-CEM leukemia): > 100 µM | TGI (DU-145 prostate): > 100 µM | TGI (HS 578T breast): > 100 µM | TGI (MDA-MB-435): > 100 µM | TGI (SF-268 CNS): > 100 µM | TGI (SF-295 CNS): > 100 µM | TGI (SNB-75 CNS): > 100 µM | TGI (TK-10 renal): > 100 µM

CC1=[N+]([O-])C(C)(C)N(O)C1(C)C
TGI (A549 NSCLC): > 100 µM | TGI (CCRF-CEM leukemia): > 100 µM | TGI (DU-145 prostate): > 100 µM | TGI (MDA-MB-435): > 100 µM | TGI (NCI-H522 lung): > 100 µM | TGI (SF-268 CNS): > 100 µM | TGI (SF-295 CNS): > 100 µM | TGI (SNB-75 CNS): > 100 µM | TGI (SR leukemia): > 100 µM | TGI (TK-10 renal): > 100 µM

Cc1ccc(S(=O)(=O)n2cnc(CC(NC(=O)C3CCC(=O)N3C(=O)OCc3ccccc3)C(=O)N3CCCC3C(=O)NN)c2)cc1 (configuration not stated)
TGI (A549 NSCLC): > 100 µM | TGI (HS 578T breast): > 100 µM | TGI (SNB-75 CNS): > 100 µM | TGI (SR leukemia): > 100 µM | TGI (TK-10 renal): > 100 µM

COC(=O)/C(=C/CC(N=C(c1ccccc1)c1ccccc1)C(=O)OC)N=C(c1ccccc1)c1ccccc1 (configuration not stated)
TGI (A549 NSCLC): > 100 µM | TGI (CCRF-CEM leukemia): > 100 µM | TGI (NCI-H522 lung): > 100 µM | TGI (SF-268 CNS): > 100 µM | TGI (SF-295 CNS): > 100 µM | TGI (SNB-75 CNS): 83.9 µM | TGI (SR leukemia): > 100 µM | TGI (TK-10 renal): > 100 µM

CC(C)C(Cl)CC/C(CBr)=C(\Cl)CCl (configuration not stated)
TGI (A549 NSCLC): 36.1 µM | TGI (DU-145 prostate): 26.3 µM | TGI (HS 578T breast): 11.8 µM | TGI (MDA-MB-435): 10 µM | TGI (NCI-H522 lung): 2.49 µM | TGI (SF-268 CNS): 32.1 µM | TGI (SF-295 CNS): 30.6 µM | TGI (SNB-75 CNS): 17 µM | TGI (TK-10 renal): 28 µM

CCO/C(O)=C(/C(=N)N1CCCC1)C(=O)Nc1ccc(Cl)cc1
TGI (A549 NSCLC): > 100 µM | TGI (CCRF-CEM leukemia): > 100 µM | TGI (DU-145 prostate): > 100 µM | TGI (HS 578T breast): > 100 µM | TGI (MDA-MB-435): > 100 µM | TGI (NCI-H522 lung): > 100 µM | TGI (SF-268 CNS): > 100 µM | TGI (SF-295 CNS): > 100 µM | TGI (SNB-75 CNS): > 100 µM | TGI (TK-10 renal): > 100 µM

COc1ccc(NC(C)=O)cc1N1C(=O)/C(=C\c2cc(OC)c(OC)c(OC)c2)S(=O)(=O)C1c1ccccc1 (configuration not stated)
TGI (A549 NSCLC): > 100 µM | TGI (CCRF-CEM leukemia): > 100 µM | TGI (DU-145 prostate): > 100 µM | TGI (MDA-MB-435): > 100 µM | TGI (NCI-H522 lung): > 100 µM | TGI (SF-295 CNS): > 100 µM | TGI (SNB-75 CNS): > 100 µM | TGI (SR leukemia): > 100 µM | TGI (TK-10 renal): > 100 µM

N#CC1=C(N)Nc2nc3ccccc3n2C1c1ccccc1 (configuration not stated)
TGI (A549 NSCLC): > 100 µM | TGI (CCRF-CEM leukemia): > 100 µM | TGI (DU-145 prostate): > 100 µM | TGI (HS 578T breast): > 100 µM | TGI (MDA-MB-435): > 100 µM | TGI (SF-268 CNS): > 100 µM | TGI (SF-295 CNS): > 100 µM | TGI (SR leukemia): > 100 µM

O=C(NN1C(=O)c2ccccc2C1=O)c1ccccc1Nc1ccccc1C(=O)NN1C(=O)c2ccccc2C1=O
TGI (CCRF-CEM leukemia): > 100 µM | TGI (DU-145 prostate): > 100 µM | TGI (MDA-MB-435): > 100 µM | TGI (NCI-H522 lung): > 100 µM | TGI (SF-268 CNS): > 100 µM | TGI (SF-295 CNS): > 100 µM | TGI (SNB-75 CNS): > 100 µM | TGI (SR leukemia): > 100 µM | TGI (TK-10 renal): > 100 µM

CO[C@H](c1ccccc1)[C@H](O)[C@](O)(c1ccccc1)P(=O)(OC)OC
TGI (A549 NSCLC): > 100 µM | TGI (CCRF-CEM leukemia): > 100 µM | TGI (DU-145 prostate): > 100 µM | TGI (MDA-MB-435): > 100 µM | TGI (NCI-H522 lung): > 100 µM | TGI (SF-268 CNS): > 100 µM | TGI (SF-295 CNS): > 100 µM | TGI (SNB-75 CNS): > 100 µM | TGI (SR leukemia): > 100 µM | TGI (TK-10 renal): > 100 µM

CSC(=N)N1N=C2c3ccccc3CC[C@@H]2[C@@H]1c1ccccc1
TGI (A549 NSCLC): 34.2 µM | TGI (CCRF-CEM leukemia): 65 µM | TGI (NCI-H522 lung): 27.8 µM | TGI (SF-268 CNS): 49.6 µM | TGI (SF-295 CNS): 27.9 µM | TGI (SR leukemia): 30.9 µM | TGI (TK-10 renal): 33.5 µM

Cc1ccccc1NC(=O)/C(C#N)=N\Nc1nc[nH]c1C(N)=O
TGI (A549 NSCLC): > 100 µM | TGI (CCRF-CEM leukemia): > 100 µM | TGI (DU-145 prostate): > 100 µM | TGI (HS 578T breast): > 100 µM | TGI (MDA-MB-435): > 100 µM | TGI (NCI-H522 lung): > 100 µM | TGI (SF-268 CNS): > 100 µM | TGI (SF-295 CNS): > 100 µM | TGI (SNB-75 CNS): > 100 µM | TGI (TK-10 renal): > 100 µM

Cc1cc2nc3c(C#N)c(-c4ccccc4)cc(Nc4ccc(F)cc4)n3c2cc1C
TGI (MDA-MB-435): > 100 µM | TGI (NCI-H522 lung): 30.7 µM | TGI (SF-268 CNS): 27.9 µM | TGI (SF-295 CNS): 76.2 µM | TGI (SNB-75 CNS): 57.5 µM | TGI (TK-10 renal): 39.3 µM

CCOn1cc(C2=C(c3c[nH]c4ccccc34)C(=O)NC2=O)c2ccccc21
GI50 (A549 NSCLC): < 28.4 nM | TGI (A549 NSCLC): 22.7 µM | GI50 (CCRF-CEM leukemia): 67.2 nM | TGI (CCRF-CEM leukemia): 19 µM | GI50 (DU-145 prostate): 163 nM | TGI (DU-145 prostate): 16.9 µM | GI50 (MDA-MB-435): < 10 nM | TGI (MDA-MB-435): < 0.0142 µM | TGI (NCI-H522 lung): > 33.6 µM | GI50 (SF-268 CNS): < 38.5 nM | TGI (SF-268 CNS): 25.1 µM | GI50 (SF-295 CNS): 15.6 nM | TGI (SF-295 CNS): 0.0443 µM | GI50 (SNB-75 CNS): < 28.8 nM | TGI (SNB-75 CNS): 34.8 µM | GI50 (SR leukemia): 34.3 nM | TGI (SR leukemia): 29.4 µM | GI50 (TK-10 renal): 32.2 nM | TGI (TK-10 renal): 0.198 µM
